ChEMBL document CHEMBL4382281, “ASK1: A Therapeutic Target for the Treatment of Multiple Diseases” (ACS Med Chem Lett, 2019)
pIC50: −log10 of the molar value.

Assays:
[1] = biological target: T1, Mitogen-activated protein kinase kinase kinase 5 (Homo sapiens, UniProt Q99683); assay: Inhibition of full-length human GST-tagged ASK1 expressed in baculovirus expression system using biotinylated STK Substrate 3 preincubated for 10 mins followed by ATP addition and measured after 5 hrs by TR-FRET assay
T1 sequence (Q99683 whole entry): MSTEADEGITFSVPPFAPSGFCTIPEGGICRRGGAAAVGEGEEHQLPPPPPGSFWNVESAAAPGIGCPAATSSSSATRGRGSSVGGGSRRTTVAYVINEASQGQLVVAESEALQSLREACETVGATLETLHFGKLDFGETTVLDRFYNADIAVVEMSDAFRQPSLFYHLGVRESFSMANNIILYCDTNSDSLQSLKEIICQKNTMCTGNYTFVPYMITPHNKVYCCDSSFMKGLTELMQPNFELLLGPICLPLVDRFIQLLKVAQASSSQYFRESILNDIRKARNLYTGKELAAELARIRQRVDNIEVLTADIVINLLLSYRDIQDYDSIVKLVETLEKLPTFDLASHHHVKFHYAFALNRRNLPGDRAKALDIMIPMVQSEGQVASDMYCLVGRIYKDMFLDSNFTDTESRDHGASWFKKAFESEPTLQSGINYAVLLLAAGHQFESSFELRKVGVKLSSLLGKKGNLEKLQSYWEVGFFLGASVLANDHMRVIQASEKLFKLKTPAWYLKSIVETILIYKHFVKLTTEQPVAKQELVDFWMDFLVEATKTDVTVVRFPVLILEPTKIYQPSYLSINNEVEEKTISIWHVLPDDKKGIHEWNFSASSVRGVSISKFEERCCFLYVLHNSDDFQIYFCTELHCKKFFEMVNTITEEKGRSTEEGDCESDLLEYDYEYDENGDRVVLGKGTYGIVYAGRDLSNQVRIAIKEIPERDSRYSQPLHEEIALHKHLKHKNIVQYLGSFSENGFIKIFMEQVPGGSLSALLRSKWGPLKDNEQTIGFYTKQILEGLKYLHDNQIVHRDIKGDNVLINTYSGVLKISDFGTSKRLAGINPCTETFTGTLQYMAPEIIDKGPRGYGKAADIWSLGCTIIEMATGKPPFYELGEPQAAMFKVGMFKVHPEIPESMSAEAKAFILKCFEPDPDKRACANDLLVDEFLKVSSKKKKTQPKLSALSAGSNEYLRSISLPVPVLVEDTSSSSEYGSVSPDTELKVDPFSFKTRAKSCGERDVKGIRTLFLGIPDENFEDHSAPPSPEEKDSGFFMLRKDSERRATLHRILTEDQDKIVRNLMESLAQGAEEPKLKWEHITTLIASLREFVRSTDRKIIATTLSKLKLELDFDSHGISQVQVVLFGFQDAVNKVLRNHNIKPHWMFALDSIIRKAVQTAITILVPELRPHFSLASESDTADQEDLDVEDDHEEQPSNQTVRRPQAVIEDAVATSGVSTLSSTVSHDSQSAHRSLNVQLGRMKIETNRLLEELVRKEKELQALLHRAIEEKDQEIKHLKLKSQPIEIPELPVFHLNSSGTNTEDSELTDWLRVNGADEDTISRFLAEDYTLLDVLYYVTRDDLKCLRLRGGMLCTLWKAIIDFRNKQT

[2] = biological target: T1, Mitogen-activated protein kinase kinase kinase 5; assay: Inhibition of recombinant V5-tagged ASK1 (unknown origin) expressed in HEK293 cells assessed as reduction in ASK1 autophosphorylation at T838 residue after 1 hr by MSD assay; format: cell-based
[3] = biological target: T1, Mitogen-activated protein kinase kinase kinase 5; assay: Inhibition of human ASK1 using MBP as substrate measured in presence of [gamma-33P]-ATP

pIC50 [1]	pIC50 [2]	pIC50 [3]	Compound
≥ 7.00	≥ 6.00	≥ 7.00	Cc1ccc2c(c1)C(=O)Nc1cccc(n1)-c1nncn1CCCCO2
6.00 to 7.00	< 5.00	–	O=C1Nc2cccc(n2)-c2nncn2C/C=C/COc2c(Br)cccc21
≥ 7.00	≥ 6.00	≥ 7.00	Cc1ncn(-c2ccc3c(c2)C(=O)Nc2cccc(n2)-c2nncn2CCCCO3)c1C
